We go through two molecules from patent US20250295646A1, “METHODS OF USE OF T-TYPE CALCIUM CHANNEL MODULATORS” (Praxis Precision Medicines, Inc., priority 2022, published 2025).

Data set [1] is described as follows: Within-participant escalating dose trial Part A (5-20 mg): pharmacokinetics. It counts as in vivo, human. The note with it: single 5 mg dose, healthy volunteers. The protocol: In Part A, an open label trial was conducted.
The target in another data set is T1, hCav3.1 (Homo sapiens, UniProt O43497).
T1 construct: expressed in transfected cells; host or cells: HEK-293
The data set is described as follows: PatchXpress patch clamp, voltage dependent block (half-inactivated state). The data set is classed as cell-based.

The next data set has as its target T2, hCav3.2 (Homo sapiens, UniProt O95180).
T2 construct: expressed in transfected cells; host or cells: HEK-293
The description is as above. It counts as cell-based. The protocol:
The voltage dependence of calcium channel isoforms was determined by comparing the activity of resting (Tonic Block) and half-inactivated (Voltage Dependent Block) voltages across various concentrations of Formula (II). First, HEK-293 cells containing hCav3.1, hCav3.2, or hCav3.3 calcium channel isoforms were prepared by seeding at 2×10^6 cells per flask in culture for 2 days; the cells were then harvested at about 6×10^6 cells. Harvested cells were washed once in DPBS for approximately 30 minutes, and 1 mL of 1× (0.05%) Trypsin-EDTA was added, swirled, and allowed to sit on the cells for approximately 4 minutes. […]
Pharmacology was measured during Epoch 1. Percent inhibition was calculated as: 100*((([Step 2+Step 5]/2)−Step3)/(Step 2+Step 5/2)), wherein Step 2 is the peak current measured at baseline, Step 5 is the current measured during the wash period, and Step 3 is the peak current measured during application of the compound. […]
The effect of the compound on peak current amplitude was monitored using the voltage protocol described above and washed out after reaching steady state as determined by PatchXpress stability scripts. […] Washout current for the calculation of inhibition was determined by resetting the holding potential to the previously determined half-inactivation potential (V0.5) and measuring peak current from this holding potential. […]

The target of another data set is T3, hCav3.3 (Homo sapiens, UniProt Q9P0X4).
T3 construct: expressed in transfected cells; host or cells: HEK-293
The description is as above. It counts as cell-based.

T1 sequence (O43497 whole entry): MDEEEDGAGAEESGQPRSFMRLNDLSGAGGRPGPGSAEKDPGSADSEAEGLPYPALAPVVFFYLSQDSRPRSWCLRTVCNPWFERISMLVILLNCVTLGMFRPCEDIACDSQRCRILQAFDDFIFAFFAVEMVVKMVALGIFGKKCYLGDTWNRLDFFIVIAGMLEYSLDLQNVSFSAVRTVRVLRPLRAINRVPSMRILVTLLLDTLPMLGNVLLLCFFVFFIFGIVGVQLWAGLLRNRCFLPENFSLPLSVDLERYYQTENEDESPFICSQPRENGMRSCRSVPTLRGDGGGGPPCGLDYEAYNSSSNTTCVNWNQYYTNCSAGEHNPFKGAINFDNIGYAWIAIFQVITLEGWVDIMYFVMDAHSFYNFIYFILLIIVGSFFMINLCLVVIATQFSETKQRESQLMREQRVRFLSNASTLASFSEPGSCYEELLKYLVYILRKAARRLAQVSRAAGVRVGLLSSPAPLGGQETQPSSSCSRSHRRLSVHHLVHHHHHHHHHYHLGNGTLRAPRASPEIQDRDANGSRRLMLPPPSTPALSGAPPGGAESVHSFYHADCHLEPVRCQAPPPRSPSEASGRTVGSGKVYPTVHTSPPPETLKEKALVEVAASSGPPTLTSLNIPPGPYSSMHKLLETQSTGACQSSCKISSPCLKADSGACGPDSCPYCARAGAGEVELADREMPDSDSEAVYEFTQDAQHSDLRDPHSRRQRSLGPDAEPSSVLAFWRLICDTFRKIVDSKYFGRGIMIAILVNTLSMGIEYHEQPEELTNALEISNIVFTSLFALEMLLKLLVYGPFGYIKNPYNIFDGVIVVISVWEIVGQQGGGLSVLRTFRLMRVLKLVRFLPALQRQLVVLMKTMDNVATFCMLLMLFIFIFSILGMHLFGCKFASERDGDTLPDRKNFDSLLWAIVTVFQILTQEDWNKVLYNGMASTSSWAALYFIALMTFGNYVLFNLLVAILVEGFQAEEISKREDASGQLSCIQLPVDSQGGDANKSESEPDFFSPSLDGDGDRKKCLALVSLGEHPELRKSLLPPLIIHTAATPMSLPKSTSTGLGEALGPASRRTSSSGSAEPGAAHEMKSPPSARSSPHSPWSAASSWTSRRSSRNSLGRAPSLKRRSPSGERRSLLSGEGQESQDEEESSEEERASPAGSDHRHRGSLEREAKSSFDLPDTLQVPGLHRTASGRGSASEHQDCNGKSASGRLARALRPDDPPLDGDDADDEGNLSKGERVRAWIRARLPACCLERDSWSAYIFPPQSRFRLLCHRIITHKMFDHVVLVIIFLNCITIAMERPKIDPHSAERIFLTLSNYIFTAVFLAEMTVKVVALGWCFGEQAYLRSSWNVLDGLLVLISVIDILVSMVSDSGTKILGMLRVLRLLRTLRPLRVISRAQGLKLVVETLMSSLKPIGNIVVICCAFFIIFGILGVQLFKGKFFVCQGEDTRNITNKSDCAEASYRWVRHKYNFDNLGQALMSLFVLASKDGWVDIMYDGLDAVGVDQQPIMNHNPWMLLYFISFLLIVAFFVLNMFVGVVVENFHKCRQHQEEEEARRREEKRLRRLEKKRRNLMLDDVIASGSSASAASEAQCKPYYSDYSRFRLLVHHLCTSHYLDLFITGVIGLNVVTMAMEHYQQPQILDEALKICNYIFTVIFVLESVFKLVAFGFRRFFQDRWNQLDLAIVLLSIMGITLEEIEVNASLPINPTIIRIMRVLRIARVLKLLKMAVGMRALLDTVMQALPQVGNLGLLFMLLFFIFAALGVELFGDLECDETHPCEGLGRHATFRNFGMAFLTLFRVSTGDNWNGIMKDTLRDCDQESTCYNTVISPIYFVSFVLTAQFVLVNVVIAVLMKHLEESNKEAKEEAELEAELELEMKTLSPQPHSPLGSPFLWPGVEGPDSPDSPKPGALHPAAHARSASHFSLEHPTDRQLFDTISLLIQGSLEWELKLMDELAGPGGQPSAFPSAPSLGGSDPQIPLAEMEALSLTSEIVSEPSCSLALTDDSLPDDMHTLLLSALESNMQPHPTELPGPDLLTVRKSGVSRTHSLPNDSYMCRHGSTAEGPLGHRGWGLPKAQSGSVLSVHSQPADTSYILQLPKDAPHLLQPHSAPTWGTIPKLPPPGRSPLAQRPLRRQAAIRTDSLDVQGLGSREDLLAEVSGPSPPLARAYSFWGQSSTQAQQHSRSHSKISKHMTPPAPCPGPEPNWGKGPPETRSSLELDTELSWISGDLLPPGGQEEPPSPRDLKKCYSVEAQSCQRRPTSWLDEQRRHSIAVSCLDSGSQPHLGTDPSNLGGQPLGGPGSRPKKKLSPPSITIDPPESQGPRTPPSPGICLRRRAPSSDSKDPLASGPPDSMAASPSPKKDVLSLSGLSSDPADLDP
T3 sequence (Q9P0X4 whole entry): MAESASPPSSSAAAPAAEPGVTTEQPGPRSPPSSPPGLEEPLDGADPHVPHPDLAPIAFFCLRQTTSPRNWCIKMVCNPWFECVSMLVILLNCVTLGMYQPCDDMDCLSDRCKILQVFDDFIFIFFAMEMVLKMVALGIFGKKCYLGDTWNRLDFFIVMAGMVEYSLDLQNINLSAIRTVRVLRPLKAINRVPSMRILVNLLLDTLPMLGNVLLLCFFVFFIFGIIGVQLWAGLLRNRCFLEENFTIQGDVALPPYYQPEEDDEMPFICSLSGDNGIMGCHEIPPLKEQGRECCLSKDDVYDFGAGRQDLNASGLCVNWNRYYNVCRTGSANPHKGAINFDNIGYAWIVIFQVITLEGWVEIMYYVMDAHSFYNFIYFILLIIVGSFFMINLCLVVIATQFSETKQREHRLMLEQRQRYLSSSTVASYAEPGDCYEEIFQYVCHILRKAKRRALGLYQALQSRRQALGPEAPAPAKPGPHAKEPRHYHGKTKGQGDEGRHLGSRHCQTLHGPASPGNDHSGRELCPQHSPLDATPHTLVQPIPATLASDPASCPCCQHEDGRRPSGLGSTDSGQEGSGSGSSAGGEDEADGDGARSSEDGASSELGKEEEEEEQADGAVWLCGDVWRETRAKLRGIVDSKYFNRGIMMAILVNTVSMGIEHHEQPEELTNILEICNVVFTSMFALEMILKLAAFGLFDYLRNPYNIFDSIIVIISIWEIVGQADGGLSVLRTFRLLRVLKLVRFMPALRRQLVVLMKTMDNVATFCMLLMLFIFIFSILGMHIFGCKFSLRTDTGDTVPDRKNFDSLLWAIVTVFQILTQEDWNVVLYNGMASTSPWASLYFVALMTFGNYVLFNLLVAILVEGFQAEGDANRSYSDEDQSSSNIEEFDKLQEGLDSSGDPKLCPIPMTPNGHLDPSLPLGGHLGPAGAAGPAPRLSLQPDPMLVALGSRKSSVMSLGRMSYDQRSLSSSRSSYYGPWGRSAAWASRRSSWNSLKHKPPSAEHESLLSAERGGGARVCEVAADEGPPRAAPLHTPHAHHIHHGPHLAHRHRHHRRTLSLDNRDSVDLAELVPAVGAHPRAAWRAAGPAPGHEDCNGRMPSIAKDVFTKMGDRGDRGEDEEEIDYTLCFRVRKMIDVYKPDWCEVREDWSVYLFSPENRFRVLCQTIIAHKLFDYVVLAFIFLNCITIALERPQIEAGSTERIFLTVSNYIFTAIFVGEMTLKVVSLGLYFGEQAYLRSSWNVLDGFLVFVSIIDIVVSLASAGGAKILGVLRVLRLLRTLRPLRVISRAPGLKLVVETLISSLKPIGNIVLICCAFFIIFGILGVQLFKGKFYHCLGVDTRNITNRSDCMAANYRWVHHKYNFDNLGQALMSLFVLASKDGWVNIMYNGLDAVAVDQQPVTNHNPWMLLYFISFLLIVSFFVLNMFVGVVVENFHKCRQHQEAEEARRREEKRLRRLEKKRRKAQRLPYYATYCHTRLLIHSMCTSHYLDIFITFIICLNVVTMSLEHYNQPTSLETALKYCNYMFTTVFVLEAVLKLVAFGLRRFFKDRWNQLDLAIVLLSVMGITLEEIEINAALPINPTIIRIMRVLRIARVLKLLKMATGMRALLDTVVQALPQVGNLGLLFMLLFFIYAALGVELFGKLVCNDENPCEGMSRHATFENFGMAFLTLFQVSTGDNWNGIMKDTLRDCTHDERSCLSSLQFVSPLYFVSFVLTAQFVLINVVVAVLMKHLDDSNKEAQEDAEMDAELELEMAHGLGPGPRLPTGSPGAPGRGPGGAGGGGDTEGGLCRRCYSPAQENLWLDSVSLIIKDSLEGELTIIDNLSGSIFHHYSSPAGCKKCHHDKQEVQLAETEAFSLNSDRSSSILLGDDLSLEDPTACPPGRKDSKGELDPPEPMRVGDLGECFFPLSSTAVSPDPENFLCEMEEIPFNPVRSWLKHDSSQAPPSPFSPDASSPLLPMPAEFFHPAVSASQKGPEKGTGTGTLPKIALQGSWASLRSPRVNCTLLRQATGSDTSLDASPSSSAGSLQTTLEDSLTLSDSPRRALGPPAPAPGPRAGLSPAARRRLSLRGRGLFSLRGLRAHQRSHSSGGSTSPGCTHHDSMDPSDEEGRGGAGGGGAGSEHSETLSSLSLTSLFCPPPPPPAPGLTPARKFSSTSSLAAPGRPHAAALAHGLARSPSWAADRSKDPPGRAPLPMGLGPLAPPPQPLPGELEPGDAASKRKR

As to `CC(C)(C)NC(=O)CN1CCC(CNC(=O)c2cc(F)cc(Cl)c2)CC1` [compound of formula (I), N-((1-(2-(tert-butylamino)-2-oxoethyl)piperidin-4-yl)methyl)-3-chloro-5-fluorobenzamide], in data set [1], the “time by which plasma concentrations were quantifiable” value is at most 0.50 h.

As to `CC(C)(C)NC(=O)CN1CCC(CNC(=O)c2cc(F)cc(Cl)c2)CC1.Cl` [compound of formula (II), N-((1-(2-(tert-butylamino)-2-oxoethyl)piperidin-4-yl)methyl)-3-chloro-5-fluorobenzamide hydrochloride], the “tonic block/voltage dependent block (TB/VDB) ratio” value on hCav3.1 came to 3.8; at hCav3.2, 2.0; on hCav3.3, 4.0.
